Assay results reported in patent publication US20070128217A1 (priority 2003, published 2007).

Experiments:
[1] = test system: rabbit serum obtained by immunizing a rabbit with the SARS-CoV strain Frankfurt 1; assay type: binding; parameters: Binding of a rabbit serum to linear peptides / Binding of a rabbit serum to looped peptides / Rabbit serum linear peptides / Rabbit serum looped peptides / Binding of a rabbit serum to linear peptides of protein N of SARS-CoV Urbani (Rabbit serum linear peptides) / Binding of a rabbit serum to looped/cyclic peptides of protein N of SARS-CoV Urbani (Rabbit serum looped peptides): unit not given here
[2] = test system: recombinant human anti-SARS-CoV antibody 03-018; assay type: binding; parameters: Binding of antibody 03-018 to linear peptides of the N protein of SARS-CoV Urbani / Binding of antibody 03-018 to looped/cyclic peptides of the N protein of SARS-CoV Urbani: unit not given here
[3] = test system: antibodies in sera from SARS patients (sera 1a, 1b, 2, 6, 37, 62, London, SARS-yellow, SARS-green); assay type: binding, human; parameters: Binding of serum 6 to linear peptides of protein X1 of SARS-CoV Urbani / Binding of serum 37 to linear peptides of protein X1 of SARS-CoV Urbani / Binding of serum 6 to looped/cyclic peptide (PEPSCAN-ELISA) / Binding of serum 37 to looped/cyclic peptide (PEPSCAN-ELISA) / Binding of serum 37 to looped/cyclic peptides of protein X1 of SARS-CoV Urbani / Binding of serum 6 to linear peptides of protein X2 / Binding of serum 37 to linear peptides of protein X2 / Binding of serum 37 to looped/cyclic peptides of protein X2 of SARS-CoV Urbani / Binding of serum 6 to linear peptides of protein M of SARS-CoV Urbani / Binding of serum 37 to linear peptides of protein M of SARS-CoV Urbani / Binding of serum 6 to looped/cyclic peptides of protein M of SARS-CoV Urbani / Binding of serum 37 to looped/cyclic peptides of protein M of SARS-CoV Urbani / Binding of serum 6 to linear peptides of protein X3 of SARS-CoV Urbani / Binding of serum 37 to linear peptides of protein X3 of SARS-CoV Urbani / Binding of serum 37 to looped/cyclic peptides of protein X3 of SARS-CoV Urbani / Binding of serum 6 to linear peptides of protein X4 of SARS-CoV Urbani / Binding of serum 37 to linear peptides of protein X4 of SARS-CoV Urbani / Binding of serum 37 to looped/cyclic peptides of protein X4 of SARS-CoV Urbani / Binding of serum 6 to linear peptides of protein X5 of SARS-CoV Urbani / Binding of serum 37 to linear peptides of protein X5 of SARS-CoV Urbani / Binding of serum 37 to looped/cyclic peptides of protein X5 of SARS-CoV Urbani / Binding of serum 6 to linear peptides of protein N of SARS-CoV Urbani / Binding of serum 37 to linear peptides of protein N of SARS-CoV Urbani / Binding of serum 6 to linear peptide (PEPSCAN-ELISA) / Binding of serum 1a to looped/cyclic peptides of protein N of SARS-CoV Urbani / Binding of serum 1b to looped/cyclic peptides of protein N of SARS-CoV Urbani / Binding of serum 2 to looped/cyclic peptides of protein N of SARS-CoV Urbani / Binding of serum 6 to looped/cyclic peptides of protein N of SARS-CoV Urbani / Binding of serum 37 to looped/cyclic peptides of protein N of SARS-CoV Urbani / Binding of serum 62 to looped/cyclic peptides of protein N of SARS-CoV Urbani / Binding of serum London to looped/cyclic peptides of protein N of SARS-CoV Urbani / Binding of serum SARS-green to looped/cyclic peptides of protein N of SARS-CoV Urbani: unit not given here
[4] = test system: control sera (pooled serum of ten healthy LUMC hospital workers; commercial negative donor pooled serum from the Dutch bloodbank); assay type: binding, human; parameters: Binding of Control serum LUMC to linear peptides / Binding of Control serum Blood-bank to linear peptides / Binding of Control serum LUMC to looped peptides / Binding of Control Serum Blood-Bank to Looped peptides / Binding of Control serum LUMC to linear peptides of the protein M of SARS-CoV Urbani / Binding of Control serum Blood-bank to linear peptides of the protein M of SARS-CoV Urbani / Binding of Control serum LUMC to looped peptides of the protein M of SARS-CoV Urbani / Binding of Control Serum Blood-Bank to Looped peptides of the protein M of SARS-CoV Urbani: unit not given here

With AATVLQLPQGTTLPK as the sequence, how does the “Binding of a rabbit serum to linear peptides of protein N of SARS-CoV Urbani (Rabbit serum linear peptides)” value [1] read?
Its value is 0.3.

And the “Binding of a rabbit serum to looped/cyclic peptides of protein N of SARS-CoV Urbani (Rabbit serum looped peptides)” value [1]?
Its value is 1.2.

What about the “Binding of antibody 03-018 to linear peptides of the N protein of SARS-CoV Urbani” value [2] of the same sequence?
The value was 0.1.

And the “Binding of antibody 03-018 to looped/cyclic peptides of the N protein of SARS-CoV Urbani” value [2]?
Its value is 0.2.

With YSNRNRFLYIIKLVF as the sequence, how does the “Binding of serum 1a to linear peptides of protein M of SARS-CoV Urbani” value [3] read?
Its value is 0.7.

What about the “Binding of serum 1b to linear peptides of protein M of SARS-CoV Urbani” value [3] of the same sequence?
The value was 0.5.

What about the “Binding of serum 2 to linear peptides of protein M of SARS-CoV Urbani” value [3] of the same sequence?
The value was 0.6.

And the “Binding of serum 6 to linear peptides of protein M of SARS-CoV Urbani” value [3]?
Its value is 0.3.

What about the “Binding of serum 37 to linear peptides of protein M of SARS-CoV Urbani” value [3] of the same sequence?
Its value is 0.7.

What about the “Binding of serum 62 to linear peptides of protein M of SARS-CoV Urbani” value [3] of the same sequence?
Its value is 0.7.

And the “Binding of serum London to linear peptides of protein M of SARS-CoV Urbani” value [3]?
Its value is 0.3.

And the “Binding of serum SARS-green to linear peptides of protein M of SARS-CoV Urbani” value [3]?
The value was 0.3.

And the “Binding of serum SARS-yellow to linear peptides of protein M of SARS-CoV Urbani” value [3]?
The value was 0.1.

What about the “Recognition of the peptide by sera of SARS-CoV infected individuals, and form (linear, looped/cyclic) in which it is recognized” value [3] of the same sequence?
The value was “recognized in looped/cyclic form”.

What about the “Rabbit serum linear peptides” value [1] of the same sequence?
Its value is 0.4.

And the “Rabbit serum looped peptides” value [1]?
The value was 0.5.

What about the “Binding of Control Serum Blood-Bank to Looped peptides of the protein M of SARS-CoV Urbani” value [4] of the same sequence?
The value was 0.6.

And the “Binding of Control serum Blood-bank to linear peptides of the protein M of SARS-CoV Urbani” value [4]?
The value was 0.7.

What about the “Binding of Control serum LUMC to linear peptides of the protein M of SARS-CoV Urbani” value [4] of the same sequence?
Its value is 0.4.

And the “Binding of Control serum LUMC to looped peptides of the protein M of SARS-CoV Urbani” value [4]?
Its value is 0.9.

With YSTAWLCALGKVLPF as the sequence, how does the “Binding of serum 1a to linear peptides of protein X5 of SARS-CoV Urbani” value [3] read?
Its value is 0.7.

And the “Binding of serum 1a to looped/cyclic peptides of protein X5 of SARS-CoV Urbani” value [3]?
The value was 0.5.

And the “Binding of serum 1b to linear peptides of protein X5 of SARS-CoV Urbani” value [3]?
Its value is 0.6.

And the “Binding of serum 1b to looped/cyclic peptides of protein X5 of SARS-CoV Urbani” value [3]?
Its value is 0.3.

What about the “Binding of serum 2 to linear peptides of protein X5 of SARS-CoV Urbani” value [3] of the same sequence?
The value was 0.7.

And the “Binding of serum 2 to looped/cyclic peptides of protein X5 of SARS-CoV Urbani” value [3]?
Its value is 0.5.

What about the “Binding of serum 6 to linear peptides of protein X5 of SARS-CoV Urbani” value [3] of the same sequence?
Its value is 0.6.

And the “Binding of serum 6 to looped/cyclic peptides of protein X5 of SARS-CoV Urbani” value [3]?
The value was 0.6.

What about the “Binding of serum 37 to linear peptides of protein X5 of SARS-CoV Urbani” value [3] of the same sequence?
Its value is 0.6.

What about the “Binding of serum 37 to looped/cyclic peptides of protein X5 of SARS-CoV Urbani” value [3] of the same sequence?
The value was 0.5.

And the “Binding of serum 62 to linear peptides of protein X5 of SARS-CoV Urbani” value [3]?
The value was 0.8.

What about the “Binding of serum 62 to looped/cyclic peptides of protein X5 of SARS-CoV Urbani” value [3] of the same sequence?
The value was 0.8.

And the “Binding of serum London to linear peptides of protein X5 of SARS-CoV Urbani” value [3]?
Its value is 0.8.

And the “Binding of serum London to looped/cyclic peptides of protein X5 of SARS-CoV Urbani” value [3]?
Its value is 0.4.

And the “Binding of serum SARS-green to linear peptides of protein X5 of SARS-CoV Urbani” value [3]?
Its value is 0.5.

What about the “Binding of serum SARS-green to looped/cyclic peptides of protein X5 of SARS-CoV Urbani” value [3] of the same sequence?
Its value is 0.2.

And the “Binding of serum SARS-yellow to linear peptides of protein X5 of SARS-CoV Urbani” value [3]?
The value was 0.4.

What about the “Binding of serum SARS-yellow to looped/cyclic peptides of protein X5 of SARS-CoV Urbani” value [3] of the same sequence?
The value was 0.9.

What about the “Rabbit serum linear peptides” value [1] of the same sequence?
The value was 0.7.

What about the “Rabbit serum looped peptides” value [1] of the same sequence?
The value was 1.0.

And the “Binding of Control Serum Blood-Bank to Looped peptides” value [4]?
Its value is 0.4.

What about the “Binding of Control serum Blood-bank to linear peptides” value [4] of the same sequence?
The value was 0.8.

What about the “Binding of Control serum LUMC to linear peptides” value [4] of the same sequence?
The value was 0.5.

What about the “Binding of Control serum LUMC to looped peptides” value [4] of the same sequence?
The value was 0.5.

With YYQLESTQITTDTGI as the sequence, how does the “Binding of serum 1a to linear peptides of protein X1 of SARS-CoV Urbani” value [3] read?
Its value is 0.7.

And the “Binding of serum 1a to looped/cyclic peptides of protein X1 of SARS-CoV Urbani” value [3]?
The value was 0.4.

And the “Binding of serum 1b to linear peptides of protein X1 of SARS-CoV Urbani” value [3]?
The value was 0.7.

And the “Binding of serum 1b to looped/cyclic peptides of protein X1 of SARS-CoV Urbani” value [3]?
Its value is 0.3.

What about the “Binding of serum 2 to linear peptides of protein X1 of SARS-CoV Urbani” value [3] of the same sequence?
Its value is 0.4.

What about the “Binding of serum 2 to looped/cyclic peptides of protein X1 of SARS-CoV Urbani” value [3] of the same sequence?
Its value is 0.2.

What about the “Binding of serum 6 to linear peptides of protein X1 of SARS-CoV Urbani” value [3] of the same sequence?
The value was 0.5.

What about the “Binding of serum 6 to looped/cyclic peptides of protein X1 of SARS-CoV Urbani” value [3] of the same sequence?
The value was 0.2.

And the “Binding of serum 37 to linear peptides of protein X1 of SARS-CoV Urbani” value [3]?
Its value is 0.7.

And the “Binding of serum 37 to looped/cyclic peptides of protein X1 of SARS-CoV Urbani” value [3]?
Its value is 0.5.

And the “Binding of serum 62 to linear peptides of protein X1 of SARS-CoV Urbani” value [3]?
Its value is 0.5.

What about the “Binding of serum 62 to looped/cyclic peptides of protein X1 of SARS-CoV Urbani” value [3] of the same sequence?
Its value is 0.4.

And the “Binding of serum London to linear peptides of protein X1 of SARS-CoV Urbani” value [3]?
The value was 0.2.

And the “Binding of serum London to looped/cyclic peptides of protein X1 of SARS-CoV Urbani” value [3]?
Its value is 0.2.

What about the “Binding of serum SARS-green to linear peptides of protein X1 of SARS-CoV Urbani” value [3] of the same sequence?
Its value is 0.2.

What about the “Binding of serum SARS-green to looped/cyclic peptides of protein X1 of SARS-CoV Urbani” value [3] of the same sequence?
The value was 0.3.

And the “Binding of serum SARS-yellow to linear peptides of protein X1 of SARS-CoV Urbani” value [3]?
The value was 0.3.

And the “Binding of serum SARS-yellow to looped/cyclic peptides of protein X1 of SARS-CoV Urbani” value [3]?
The value was 0.3.

What about the “Binding of a rabbit serum to linear peptides” value [1] of the same sequence?
Its value is 0.1.

What about the “Binding of a rabbit serum to looped peptides” value [1] of the same sequence?
The value was 0.6.

And the “Binding of Control Serum Blood-Bank to Looped peptides” value [4]?
Its value is 0.4.

And the “Binding of Control serum Blood-bank to linear peptides” value [4]?
Its value is 0.4.

And the “Binding of Control serum LUMC to linear peptides” value [4]?
Its value is 0.5.

What about the “Binding of Control serum LUMC to looped peptides” value [4] of the same sequence?
The value was 0.4.
